These results are taken from US10111854B2, “Synthesis and use of amine-containing flavonoids as potent anti-leishmanial agents” (The Hong Kong Polytechnic University, priority 2014, dated 2018).

Values after ≈ are worked out from the molar mass of the structure shown. Where two headings read alike, the source gives them in different places. Bounds are passed on as bounds.

For orientation: IC50 means the concentration at which inhibition is half-maximal. One may read the bioavailability as dose-corrected exposure relative to a reference, in per cent. In general, solubility refers to the dissolved amount per volume that the medium holds. A lower solubility goes with little dissolved substance.

Series [1] deals with L. amazonensis LV78 promastigotes. Description: Anti-promastigote activity (MTS assay), L. amazonensis LV78. Format: cell-based. The settings on record: Leishmania amazonensis, 72 hours. The method in brief: (§1)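 Promastigotes (1×10^5 per well) in Schneider's medium pH 6.9 with 10% FBS, exposed to serial compound concentrations for 72 h at 27 °C. Viability by MTS/PMS reduction over 4 h, OD 490 nm; IC50 derived.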
In general terms: Tetrazolium assays rely on reduction of a dye to a coloured formazan, in cell work by metabolically active cells.

Series [2] concerns L. major FV1 promastigotes. Description: Anti-promastigote activity (MTS assay), L. major FV1. Format: cell-based. The settings on record: Leishmania major, 72 hours. The essentials: as §1
In series [3] the test system is L. donovani HU3 promastigotes. In words: Anti-promastigote activity (MTS assay), L. donovani HU3. Format: cell-based. The settings on record: Leishmania donovani, 72 hours. The method in brief:
as §1

Series [4] deals with L. amazonensis promastigotes. Description: Mitochondrial membrane potential (rhodamine 123) and survivors (MTS) of promastigotes. Format: cell-based. The settings on record: for viability at 10 µM: Leishmania amazonensis, read-out: % of viable cells (MTS). How it is done:
1×10^7 promastigotes were seeded into each well of 6-well plate. The promastigotes were incubated with different concentrations (0, 1.25, 2.5, 5 and 10 μM) of FM09 for 24 and 48 hr, respectively. After incubation, promastigotes were washed two times with 1×PBS and resuspended with 1000 μL of supplemented Schneider's Insect media containing 10 μg/mL of rhodamine 123 in an Eppendorf. The promastigotes were incubated with rhodamine 123 at room temperature for 40 min with shaking. After incubation, promastigotes were washed one time with cold 1×PBS and then re-suspended with 100 μL of 1×PBS. The fluorescent level of rhodamine 123 was measured with a microplate reader (excitation: 485 nm and emission: 520 nm).
L. amazonensis promastigotes were cultivated in different concentration (0, 1.25, 2.5, 5 and 10 μM) of FM09 for 24 hr or 48 hr. The promastigotes were washed and exposed to rhodamine 123 (10 μg/mL) for 40 min. The level of rhodamine 123 accumulation was measured at 520 nm using 485 nm as an excitation wavelength. 0.2% DMSO was used as a solvent control. The values were presented as mean±standard error of mean.

Series [5] can be described thus: Pharmacokinetics study of FM09, FM09h and FM05b, iv and oral. Format: in vivo, Balb/c mice. As to conditions: 50 mg/kg oral. How it is done:
Animals were sacrificed at the indicated time point and plasma level of the corresponding flavonoids were determined using LC-MSMS. IC50 of corresponding flavonoids are indicated. Bioavailability (F) was calculated by dividing the dose-adjusted area under curve (AUC) of that of orally-fed over intravenously administered animals.

Series [6] deals with promastigotes (L. amazonensis LV78, L major FV1, L. donovani HU3, L. donovani 39). Description: Anti-promastigote activity, strain not given. Format: cell-based. The settings on record: Leishmania amazonensis; strain not specified; read-out: IC50 against promastigotes. The method in brief: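 Promastigotes seeded at 1×10^5 per well and exposed to a concentration series of compound for 72 hours at 27° C. Viability read by MTS/PMS tetrazolium reduction (4 hours, OD 490 nm); IC50 derived.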

Series [7] has as its system L. donovani (LdAG83) promastigotes. Description: Anti-promastigote activity, wild type L. donovani LdAG83. Format: cell-based. As to conditions: Leishmania donovani; printed in HU3 column; footnote *: wild type LdAG83 used instead of HU3.
A short description of series [8]: Bioavailability study of flavonoid dimer 39, oral feeding vs i.v. The settings on record: in 50% PEG, 30 minutes. Format: in vivo, Balb/c mice. How it is done:
Amine-linked flavonoid dimers are disclosed in prior studies to be sparingly soluble in aqueous medium. Their poor oral bioavailability is confirmed by in vivo study in mice. […] Plasma concentration of 39 was determined 30 minutes after oral feeding or i.v. administration. […] Such low bioavailability precluded 39 from being used as an oral antileishmanial agent in the future.

A short description of the next series: Water solubility. Format: physicochemical. An excerpt:
In terms of physicochemical properties, all flavonoid monomers listed as active against either L. amazonensis (Table 3A) or L. donovani (Table 3B) are smaller than 39, and have fewer H-bond donors and acceptors. They also have a lower calculated ACDLogP (1.978 to 4.537) than 39 (5.104), except FM05 (5.011), FM17 (5.101) and FM19 (5.451). The lower ACDLogP values mean more water soluble; better partition between hydrophilic and hydrophobic phases and potentially easier to be absorbed orally. Indeed, these flavonoid monomers are highly water soluble (up to about 40 mg/mL of the hydrochloride salt) whereas 39 is not (up to about 4 mg/ml).

The test system of another series is L. amazonensis. As to conditions: cutaneous leishmaniasis murine model; cited from earlier work.

Consider `O=c1cc(-c2ccc(OCCOCCN(Cc3ccccn3)Cc3ccccn3)cc2)oc2ccccc12` [FM09, 2-(4-(2-(2-(bis(pyridin-2-ylmethyl)amino)ethoxy)ethoxy)phenyl)-4H-chromen-4-one], for which the concentration for half-maximal inhibition (IC50) in series [1] was 1000 ± 300 nM; in series [2] it was 800 ± 100 nM; in [3], 500 ± 200 nM; in series [6], < 5 µM. Further, the “Mitochondrial potential (rhodamine 123 accumulation)” value in [4] (0-10 μM, 24 hr and 48 hr, dose-dependent) is “drop of mitochondrial potential”. Further, the “% of survivors (MTS)” value is “about 100%” in series [4] (1.25 μM, 24 hr and 48 hr); “about 100%” in [4] (2.5 μM, 24 hr and 48 hr); 68% in [4] (5 μM, 24 hr); 88% in series [4] (5 μM, 48 hr). For the same compound, the results for the viability at 10 µM in [4] (24 hr) and in series [4] (48 hr) were 29% and 23%, respectively. For the same compound, the “Clearance from plasma after oral feeding” value in series [5] is on record as “rapidly cleared”. In addition, in series [5] (Balb/c, mouse, plasma, 10 mg/kg iv, dose-adjusted AUC oral over iv, read-out: Bioavailability (F)), the bioavailability was determined as 14%.

Compound `O=c1cc(-c2ccc(OCCOCCN(CCOCCOc3ccc(-c4cc(=O)c5ccccc5o4)cc3)Cc3ccncc3)cc2)oc2ccccc12` [compound 39] gave an IC50 in series [7] of 200 ± 30 nM. Besides, the “Plasma level after oral feeding relative to i.v. group” value in series [8] is < 1%. The solubility in “Water solubility” is ~4000 µg/mL (≈ 5.52 mM). The “Foot pad lesion size” value with L. amazonensis is “effective in reducing foot pad lesion size”.
